How the values were obtained:
[1] = Daytime color of polyurethane film with dye laminated to retroreflective sheeting; assay type: physicochemical; details: dye 0.2 wt.-% in aliphatic polyester polyurethane PN03.214, 0.1 mm film on Scotchlite 3970
Description: (§1) The daytime color of each article was measured using a Labsphere BFC-450 Bispectral Colorimeter commercially available from Labsphere, North Sutton, N.H. The daytime chromaticity (x,y), total luminance factor (YT), and fluorescence luminance factor (YF; which is a measure of the fluorescent properties of the article) calculated for the CIE D65 and the CIE 1931 observer are provided in TABLE II
Examples 24-27 were prepared as described in Examples 8-10, except that the dyes of Examples 1, 3, 6-(2-hydroxy-ethoxy)-14H-anthra(2,1,9-mna)thioxanthene-14-one (described by Carlini et al.) and 6-methoxy-14H-anthra(2,1,9-mna)thioxanthene-14-one were independently used at 0.2 wt.-% loading in an aliphatic polyester polyurethane resin commercially available from Huntsman Polyurethanes, West Deptford, N.J., USA under the trade designation “PN03.214”. The extrusion conditions for the polyurethane were 154-191° C. and the resultant film thickness was 0.1 mm.
The resultant films were laminated to Scotchlite 3970 reflective sheeting on aluminum panels as described in Examples 8-10. Color values were measured as described in Examples 8-10 and the results set out in TABLE VII.

[2] = Dye concentration in saturated acetone solution at room temperature; assay type: physicochemical; details: 72 hours at RT, 0.45 micron PTFE filtered, absorbance at 535 nm
Description: Examples 4-7 were prepared by placing 60-100 mg of each of the compounds of Examples 1-3 and 6-methoxy-14H-anthra(2,1,9-mna)thioxanthene-14-one (described by Carlini et al.) in a vial with 5.0 ml acetone. […] Each vial was hand shaken and the solution was filtered using a 0.45 micron polytetrafluoroethylene (PTFE) filter commercially available from VWR Scientific Products, West Chester, Pa. under the trade designation “Acrodisc 13CR PTFE”.
The amount of fluorescent dye in the saturated acetone solution was determined by measuring the major dye absorption band at 535 nm using a UV-Vis Spectrophotometer commercially available from Shimadzu Scientific Instruments, Inc., Columbia, Md. under the trade designation “Shimadzu model UV-2401PC”. Dye concentrations were calculated by measuring the absorbance of the saturated acetone solution, and then diluting that solution until absorbance of the resulting solution was below 3. The dyes were assumed to have equal absorbance per mole. Using the dilution and an absorbance coefficient of 16,100 A/mol/L (coefficient obtained in acetone for the dye of Example 3) and assuming a Beer's Law relationship, the concentration of dye in each saturated solution was calculated and is set out in TABLE I

[3] = Daytime color of polycarbonate sheet with dye laminated to retroreflective sheeting (Labsphere BFC-450 Bispectral Colorimeter); assay type: physicochemical; details: 0.2% dye in polycarbonate FCR-2407, 0.1 mm sheet on Scotchlite 3970; CIE D65, CIE 1931 observer
Description: Examples 8-10 were prepared with the compounds of Examples 1 and 2 and 6-methoxy-14H-anthra(2,1,9-mna)thioxanthene-14-one at a 0.2% loading in polycarbonate FCR-2407. Extrusion conditions for the polycarbonate were 260-304° C. using a single screw extruder. Optically transparent pressure sensitive adhesive with a liner on both sides of the adhesive was laminated to the 0.1 mm thick sheet of polycarbonate by removing one of the liners from the adhesive and then applying the exposed adhesive to the polycarbonate sheet with two passes of a roller using hand pressure.
The remaining liner was removed from the adhesive and the polycarbonate sheet construction was laminated to retroreflective sheeting commercially available from 3M under the trade designation “Scotchlite Diamond Grade LDP Reflective Sheeting Series 3970” (Scotchlite 3970) with two passes of a roller using hand pressure. The Scotchlite 3970 reflective sheeting had previously been laminated to a 7 cm wide by 28 cm long aluminum panel (6061T6 alloy with etch and desmut surface from Q Panel Company, Cleveland, Ohio) with two passes of a roller with hand pressure.
as §1

[4] = Daytime color and visual inspection of PMMA film with dye laminated to retroreflective sheeting; assay type: physicochemical; details: for visual inspection of film for undissolved dye: extruded PMMA CP923 film 0.1 mm, 6-methoxy dye at 1 wt.-%, dyes of Examples 1-2 at up to 1.27 wt-%
Description: as §1
Examples 11-16 were prepared with the compounds of Examples 1-2 and 6-methoxy-14H-anthra(2,1,9-mna)thioxanthene-14-one in polymethylmethacrylate (PMMA) resin at the wt.-% of dye shown in TABLE III. The samples were prepared by dry blending the dye with a medium impact modified grade PMMA resin commercially available from Ineos Acrylics Inc., Cordova, Tenn. under the trade designation “CP923”. Films of 0.1 mm thickness were extruded through a single screw extruder with three heating zones set at 249° C. to 260° C. […] Examples 11 and 12 and Examples 13 and 14 had equal molar loadings of dye.
The resultant films were laminated to Scotchlite 3970 reflective sheeting on aluminum panels as described in Examples 8-10. Color values were measured as described in Examples 8-10 and the results set out in TABLE III.

[5] = Daytime color of Paraloid B66 dye coating on retroreflective sheeting; assay type: physicochemical; details: for YF (fluorescence luminance factor) / YT (total luminance factor) / x (daytime chromaticity) / y (daytime chromaticity): 0.10 parts dye in 64.8 parts Dowanol DPMA and 38.2 parts Paraloid B66, coated on Scotchlite 3970 with #16 wire wound bar, dried
Description: as §1
Examples 19-21 were prepared by independently stirring 0.10 parts of the dyes of Examples 1 and 3 and 6-methoxy-14H-anthra(2,1,9-mna)thioxanthene-14-one in a clear vehicle solution of 64.8 parts Dowanol DPMA and 38.2 parts Paraloid B66.
The fluorescent dye solutions were coated on Scotchlite 3970 reflective sheeting using a #16 wire wound bar. The coating was air dried for 5 minutes and then dried in a 120° C. oven for 45 minutes. Color values were measured as described in Examples 8-10 and the results set out in TABLE V.

[6] = Daytime color of copolyester film with dye laminated to retroreflective sheeting; assay type: physicochemical; details: dye 0.2 wt.-% in copolyester resin, 0.1 mm film on Scotchlite 3970
Description: as §1
Examples 17-18 were prepared as described in Examples 8-10, except that the dyes of Examples 1 and 2 at a 0.2 wt.-% loading were independently incorporated into a copolyester resin. The copolyester resin was prepared using terephthalic and isophthalic acid in an 80/20 ratio and ethylene glycol in the conventional manner and analogous to the production of polyethylene terephthalate according to the method described in Macromolecular Syntheses, A Periodic Publication of Methods for the Preparation of Macromolecules, Collective Volume I, 1977, J. A. Moore, Editor, (John Wiley & Sons, New York; 1978);p. 17-21. The extrusion conditions for the copolyester were 254-260° C. using a single screw extruder and the resultant film thickness was 0.1 mm.
The resultant films were laminated to Scotchlite 3970 reflective sheeting on aluminum panels as described in Examples 8-10. Color values were measured as described in Examples 8-10 and the results set out in TABLE IV.

[7] = Daytime color of vinyl film with dye laminated to retroreflective sheeting; assay type: physicochemical; details: 0.18 g dye in 65 g GEON 178 / Elvacite 2013 mixture, 0.04 mm vinyl film on Scotchlite 3970
Description: as §1
Examples 22-23 were prepared by independently stirring 0.18 g of the dye of Examples 1 and 3 into 65 g of a mixture composed of 42 wt.-% DIBK, xylol, and mineral spirit (1.7:2.3:1), 44 wt.-% of a polyvinyl chloride dispersion commercially available from PolyOne, Cleveland, Ohio under the trade designation “GEON 178” and 14 wt.-% of a polyacrylate commercially available from Ineos Acrylics Inc., Cordova, Tenn. under the trade designation “Elvacite 2013”. Each mixture was allowed to stand at room temperature for one hour prior to knife coating onto a pre-sized paper substrate. Each coated substrate was placed in a 150° F. (66° C.) oven for 1.5 minutes, followed by a 300° F. (149° C.) oven for 1.0 minute and a 400° F. (204° C.) oven for 0.75 minute, resulting in a 0.04 mm thick fluorescent colored vinyl film.
The resultant films were laminated to Scotchlite 3970 reflective sheeting on aluminum panels as described in Examples 8-10. Color values were measured as described in Examples 8-10 and the results set out in TABLE VI.

[8] = dye 0.3 wt-% in PMMA CP923, 0.1 mm film on Scotchlite 3970
[9] = dye 1.0 wt-% in PMMA CP923, 0.1 mm film on Scotchlite 3970
[10] = dye 0.2 wt-% in PMMA CP923, 0.1 mm film on Scotchlite 3970

SMILES | X (daytime chromaticity) [1] | YF (fluorescence luminance factor) [1] | YT (total luminance factor) [1] | y (daytime chromaticity) [1] | Dye Concentration in Acetone at RT [2] [mg/mL] | YF (fluorescence luminance factor) [3] | YT (total luminance factor) [3] | x (daytime chromaticity) [3] | y (daytime chromaticity) [3] | visual inspection of film for undissolved dye [4] | YF (fluorescence luminance factor) [5] | YT (total luminance factor) [5] | x (daytime chromaticity) [5] | y (daytime chromaticity) [5] | also measured
O=c1c2ccccc2c2cc(OCCO)c3sc4ccccc4c4ccc1c2c34 [6-(2-hydroxy-ethoxy)-14H-anthra(2,1,9-mna)thioxanthene-14-one, reference compound] | 0.6000 | 10.09 | 14.71 | 0.2756 |  |  |  |  |  |  |  |  |  |  | 
COc1cc2c3ccccc3c(=O)c3ccc4c5ccccc5sc1c4c32 [6-methoxy-14H-anthra(2,1,9-mna)thioxanthene-14-one, reference compound] | 0.5989 | 9.69 | 14.81 | 0.2780 | 0.06 | 16.15 | 28.24 | 0.6163 | 0.3025 | particles of dye in the film | 1.12 | 17.05 | 0.3977 | 0.3225 | X (daytime chromaticity) [4, 8]: 0.6072; YF (fluorescence luminance factor) [4, 8]: 11.64; YT (total luminance factor) [4, 8]: 17.02; y (daytime chromaticity) [4, 8]: 0.3117; X (daytime chromaticity) [4, 9]: 0.5723; YF (fluorescence luminance factor) [4, 9]: 3.67; YT (total luminance factor) [4, 9]: 5.28; y (daytime chromaticity) [4, 9]: 0.3064
CCCCC(CC)COc1cc2c3ccccc3c(=O)c3ccc4c5ccccc5sc1c4c32 (stereo not shown) [Example 2, 6-[(2-Ethylhexyl)oxy]-14H-anthra[2,1,9-mna]thioxanthene-14-one] |  |  |  |  | 0.96 | 16.6 | 32.05 | 0.5336 | 0.2979 | uniform appearance with no undissolved dye seen |  |  |  |  | X (daytime chromaticity) [4, 10]: 0.6064; YF (fluorescence luminance factor) [4, 10]: 14.69; YT (total luminance factor) [4, 10]: 31.13; y (daytime chromaticity) [4, 10]: 0.3113; YF (fluorescence luminance factor) [6]: 12.77; YT (total luminance factor) [6]: 19.91; x (daytime chromaticity) [6]: 0.5627; y (daytime chromaticity) [6]: 0.2785; melting point: 175 to 177 °C
CC(C)CC(CC(C)C)Oc1cc2c3ccccc3c(=O)c3ccc4c5ccccc5sc1c4c32 [Example 3, 6-(1-Isobutyl-3-methylbutoxy)-14H-anthra[2,1,9-mna]thioxanthene-14-one] | 0.5970 | 11.62 | 17.66 | 0.2886 | 2.98 |  |  |  |  |  | 17.05 | 33.17 | 0.4971 | 0.3113 | appearance of coated article ([5]; dye in Paraloid B66 coating on Scotchlite 3970): bright fluorescent pink appearance; Y (daytime chromaticity) [7]: 0.2609; YF (fluorescence luminance factor) [7]: 12.92; YT (total luminance factor) [7]: 24.21; x (daytime chromaticity) [7]: 0.4952

Source: US6841236B2, “Articles containing thioxanthone dyes” (3M Innovative Properties Co., priority 2001, dated 2005)
